Test results from US20260027244A1, “SILICON-BASED FLUORIDE ACCEPTOR GROUPS FOR RADIOPHARMACEUTICALS” (Technische Universität München, priority 2022, published 2026).
Like-named read-outs stand apart in the source and are kept apart here.

Experiments:
[1] = molecular target: T1, human serum albumin (HSA) (Homo sapiens, UniProt P02768); conditions: HSA binding values obtained from literature; cited from earlier work
[2] = molecular target: T1, human serum albumin (HSA); test: HSA binding of reference substances from literature (HPAC calibration); conditions: logarithmic value of HSA binding values
Description: HSA binding of the PSMA-addressing ligands by HPAC was determined according to a previously published procedure via HPLC. […] Mobile phase A was a freshly prepared 50 mM aqueous solution of NH4OAc (pH 6.9) and mobile phase B was isopropanol (HPLC grade, VWR). The applied gradient for all experiments was 100% A (0 to 3 min), followed by 80% A (3 to 40 min). […] (12,13). All substances were dissolved in a 1:1 mixture (v/v) of isopropanol and a 50 mM aqueous solution of NH4OAc (pH 6.9) with a final concentration of 0.5 mg/mL. Non-linear regression was established with the OriginPro 2016G software (Northampton, United States).

[3] = n-octanol-water partition coefficient (log D7.4); type: physicochemical
Description: In the development process of alternative SiFA-analogs, the influence of the substitution pattern at the aromatic moiety on lipophilicity is of particular importance. […] Assuming to observe a better differentiation in properties of the various prosthetic groups, investigations were conducted on small model peptides. Corresponding log D7.4-values (n≥8) are depicted in FIG. 3.
Approximately 1 MBq of the [^177Lu]Lu-labeled tracer or 0.5 MBq of the [^18F]F-labeled tracer was dissolved in 1 mL of n-octanol/PBS (v/v=1:1) in a reaction vial (1.5 mL). After vigorous mixing of the suspension for 3 min at rt, the vial was centrifuged at 15000 g for 5 min (Biofuge 15, Heraus Sepatech, Osterode, Germany) and 100 μL aliquots of both layers were measured in a γ-counter. The experiment was repeated (n≥6).

[4] = molecular target: T2, PSMA (Homo sapiens, UniProt Q04609); test: PSMA affinity (IC50) on LNCaP cells, competition with [125I]I-BA-KuE; type: binding
T2 construct: host or cells: LNCaP cells
Description: A mixture of trypsin and EDTA (0.05%, 0.02%) in PBS (Biochrom GmbH, Berlin, Germany) was used to harvest cells. Cells were counted with a Neubauer hemocytometer (Paul Marienfeld, Lauda-Königshofen, Germany).
In the case of metal-complexed ligands, the crude reaction mixture was diluted analogously, without further purification. Cells were harvested 24±2 hours prior to the experiment and seeded in 24-well plates (1.5×10^5 cells in 1 mL/well). After removal of the culture medium, the cells were carefully washed with 500 μL of HBSS (1% BSA) and left 15 min on ice for equilibration in 200 μL HBSS (1% BSA). […] For each concentration, the experiment was performed in triplicate. After incubation on ice for 60 min, the experiment was terminated by removal of the medium and consecutive rinsing with 200 μL of HBSS (1% BSA). The media of both steps were combined in one fraction and represent the amount of free radioligand. Afterwards, the cells were lysed with 250 μL of NaOH (1 M in H2O) for at least 15 min. After a washing step with NaOH (250 μL, 1 M in H2O), both fractions, representing the amount of bound ligand, were united. Quantification of all collected fractions was accomplished in a γ-counter. IC50 values were calculated using GraphPad PRISM software (GraphPad Software Inc., La Jolla, United States). The whole PSMA-affinity determination was carried out at least three times per ligand.

[5] = molecular target: T1, human serum albumin (HSA); test: Human serum albumin (HSA) binding by high performance affinity chromatography (HPAC); type: in vitro ADME; conditions: radiohybrid SSTR ligands, Table 4
Description: Investigations about the binding strength of the SiFA-MPs to human serum albumin (HSA) were conducted using high performance affinity chromatography (HPAC). The corresponding gold-standards ((4-SiFA)Bz-MPs) display—as expected from published as well as internal data—a quite strong HSA binding. This is associated with a comparably slow and unfavored blood clearance in vivo.

[6] = Biodistribution in LNCaP tumor-bearing male CB17-SCID mice; type: in vivo; conditions: 1 h p.i.
Source text: Data expressed as percentage of the injected dose per gram (% ID/g), mean±standard deviation. Data of [18F]F, ^natGa-rhPSMA-7.3 were previously published by our group. (2)
Mice were used for experiments when tumors had grown to a diameter of 2-6 mm (4-20 weeks after inoculation).
Results are all decay-corrected and given in % injected dose per gram of tissue (% ID/g).

[7] = 1 h p.i.; previously published data; cited from earlier work

T1 sequence (P02768 25-609): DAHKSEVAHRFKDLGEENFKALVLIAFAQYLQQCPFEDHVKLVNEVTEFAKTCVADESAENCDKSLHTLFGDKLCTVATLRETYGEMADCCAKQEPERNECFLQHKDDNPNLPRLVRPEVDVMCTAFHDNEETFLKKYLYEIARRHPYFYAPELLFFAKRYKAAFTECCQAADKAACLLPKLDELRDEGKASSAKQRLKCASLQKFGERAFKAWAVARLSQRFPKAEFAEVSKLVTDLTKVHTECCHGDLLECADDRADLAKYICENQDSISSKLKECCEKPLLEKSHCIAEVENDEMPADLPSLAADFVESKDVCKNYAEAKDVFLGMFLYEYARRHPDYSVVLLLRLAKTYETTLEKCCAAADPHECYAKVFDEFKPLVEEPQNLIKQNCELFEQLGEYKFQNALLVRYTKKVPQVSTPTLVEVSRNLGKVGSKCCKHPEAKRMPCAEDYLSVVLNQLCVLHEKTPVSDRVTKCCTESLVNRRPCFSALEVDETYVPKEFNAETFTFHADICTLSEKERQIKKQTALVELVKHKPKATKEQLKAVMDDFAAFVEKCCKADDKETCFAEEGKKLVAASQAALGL
T2 sequence (Q04609 whole entry): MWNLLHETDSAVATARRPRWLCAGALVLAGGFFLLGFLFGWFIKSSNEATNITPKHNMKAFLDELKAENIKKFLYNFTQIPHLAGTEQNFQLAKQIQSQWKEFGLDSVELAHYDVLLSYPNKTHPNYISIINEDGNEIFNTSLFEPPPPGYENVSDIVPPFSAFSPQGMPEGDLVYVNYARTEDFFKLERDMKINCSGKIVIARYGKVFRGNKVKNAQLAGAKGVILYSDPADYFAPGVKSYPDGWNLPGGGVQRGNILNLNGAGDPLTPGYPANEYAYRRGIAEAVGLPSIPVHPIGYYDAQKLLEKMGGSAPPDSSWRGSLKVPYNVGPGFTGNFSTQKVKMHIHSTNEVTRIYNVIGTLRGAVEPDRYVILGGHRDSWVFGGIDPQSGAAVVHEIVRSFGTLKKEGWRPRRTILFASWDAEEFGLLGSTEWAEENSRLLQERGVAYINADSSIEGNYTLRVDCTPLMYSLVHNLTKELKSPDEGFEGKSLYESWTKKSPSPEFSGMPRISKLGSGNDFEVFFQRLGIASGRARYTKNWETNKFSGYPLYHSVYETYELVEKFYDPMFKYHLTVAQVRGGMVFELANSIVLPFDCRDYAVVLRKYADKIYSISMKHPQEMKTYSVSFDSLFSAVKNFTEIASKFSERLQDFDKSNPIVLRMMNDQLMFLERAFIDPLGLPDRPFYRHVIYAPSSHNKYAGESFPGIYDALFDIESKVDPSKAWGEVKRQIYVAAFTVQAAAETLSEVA

For `Nc1ccccc1` [Aniline], the “lit. HSA [%]” value [1] is listed as 14.06% and the “Log K HSA” value [2] is listed as −0.79.
In the case of `O=C(O)c1ccccc1` [Benzoic Acid], the “lit. HSA [%]” value [1] is given as 34.27%.
With `CC(C)(C)[Si](F)(c1ccc(C(=O)NCCCC[C@H](NC(=O)N[C@@H](CCC(=O)O)C(=O)O)C(=O)O)cc1)C(C)(C)C` [Entry 1] the “logD7.4 (n = 6)” value ([3]; pH 7.4) was −1.95 ± 0.09 and the IC50 [4] was 327 ± 73 nM.
In the case of `C[C@@H](O)[C@H](NC(=O)[C@@H]1CSSC[C@H](NC(=O)[C@@H](Cc2ccccc2)NC(=O)CN2CCN(CC(=O)O)CCN(CC(=O)NCCNC(=O)c3cc(C(=O)O)cc([Si](F)(C(C)(C)C)C(C)(C)C)c3)CCN(CC(=O)O)CC2)C(=O)N[C@@H](Cc2ccc(O)cc2)C(=O)N[C@H](Cc2c[nH]c3ccccc23)C(=O)N[C@@H](CCCCN)C(=O)N[C@@H]([C@@H](C)O)C(=O)N1)C(=O)O` [Entry 4, ^natGa-(5-SiFA)Ip-EDA-DOTATATE, metal not drawn], the “logD7.4 (n = 6)” value ([3]; 18F-labeled compound, SSTR ligands) is reported as −0.67 ± 0.03 and the “HSA binding (HPAC) [%]” value [5] is reported as 97.4%.
In the case of `COc1ccc(Cl)cc1C(=O)NCCc1ccc(S(=O)(=O)NC(=O)NC2CCCCC2)cc1` [Glibenclamide], the “lit. HSA [%]” value [1] is listed as 99.00% and the “Log K HSA” value [2] is listed as 1.69.
Work on `CCCC[C@@H](C(=O)N[C@@H](CC(=O)O)C(=O)N[C@@H](Cc1cccc2ccccc12)C(N)=O)N(C)C(=O)[C@H](Cc1c[nH]c2ccccc12)NC(=O)CNC(=O)[C@H](Cc1ccc(O)cc1)NC(=O)[C@H](C)NC(=O)[C@@H](CCC(=O)O)NC(=O)CN1CCN(CC(=O)O)CCN(CC(=O)O)CCN(CC(=O)O)CC1` [Lu-DOTA-MGS5] yielded a logD ([3]; pH 7.4) of -2.25.
With `CC(C)(C)[Si](F)(c1cccc(C(=O)NCCCC[C@H](NC(=O)N[C@@H](CCC(=O)O)C(=O)O)C(=O)O)c1)C(C)(C)C` [PSMA-2] the increase in affinity ([4]; shift of silyl group from para (PSMA-1) to meta position) was “more than 20 fold”.
Compound `CC(C)(C)[Si](F)(c1cc(C(=O)O)cc(C(=O)NCCCC[C@H](NC(=O)N[C@@H](CCC(=O)O)C(=O)O)C(=O)O)c1)C(C)(C)C` [PSMA-3] has an accumulation in intestine [6] of 17.7±1.6 % ID/g, an accumulation in liver [6] of 7.2±4.8 % ID/g and a blood value [6] of 0.55 % ID/g. For the same compound, the bone uptake [6] was 1.16±0.22 % ID/g, the kidney value [6] was 67.1±13.9 % ID/g and the “further improvement of affinity, factor” value ([4]; attaching a carboxylic acid, compared to PSMA-2) was “two”.
In the case of `Oc1ccccc1` [Phenol], the “lit. HSA [%]” value [1] is given as 20.69% and the “Log K HSA” value [2] is given as −0.59.
For `CCCN(CCC)S(=O)(=O)c1ccc(C(=O)O)cc1` [Probenecid], the “lit. HSA [%]” value [1] is listed as 95.00%.
In the case of `CC(C)(C)[Si](F)(c1ccc(C(=O)NC[C@@H](NC(=O)CC[C@@H](C(=O)O)N2CCN(CC(=O)O)CCN(CC(=O)O)CCN(CC(=O)O)CC2)C(=O)N[C@H](CCCCC(=O)NCCC(=O)NCCC[C@@H](NC(=O)CC[C@H](NC(=O)N[C@@H](CCC(=O)O)C(=O)O)C(=O)O)C(=O)O)C(=O)O)cc1)C(C)(C)C` [[^18F]F, ^natGa-rhPSMA-7.3, metal not drawn], the blood value [7] is listed as 0.96 % ID/g and the bone uptake [7] is listed as 0.38±0.32 % ID/g.
